Experimental findings from PMC8539010, “Utility of Bioluminescent Homogeneous Nucleotide Detection Assays in Measuring Activities of Nucleotide-Sugar Dependent Glycosyltransferases and Studying Their Inhibitors” (Molecules, 2021) are described below.

pIC50: −log10 of the molar value.

Experiment [1] addresses T1, FUT7 (Fucosyltransferase 7) (Homo sapiens, UniProt Q11130).
T1 sequence (Q11130 1-342): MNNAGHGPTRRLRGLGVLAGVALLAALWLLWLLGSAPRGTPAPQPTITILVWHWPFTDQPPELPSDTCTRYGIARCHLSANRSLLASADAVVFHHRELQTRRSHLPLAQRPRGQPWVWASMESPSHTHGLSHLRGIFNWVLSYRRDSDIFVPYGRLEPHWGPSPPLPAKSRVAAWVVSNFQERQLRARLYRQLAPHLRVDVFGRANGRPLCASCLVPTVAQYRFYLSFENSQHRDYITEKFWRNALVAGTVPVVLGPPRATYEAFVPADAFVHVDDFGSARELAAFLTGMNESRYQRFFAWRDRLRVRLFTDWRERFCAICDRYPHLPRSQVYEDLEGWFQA
Briefly: GDP-Glo bioluminescent enzyme assay, dose response with fetuin and GDP-fucose. Type of experiment: biochemical.

The target of experiment [2] is T2, OGT (O-GlcNAc Transferase) (Homo sapiens, UniProt O15294).
T2 sequence (O15294 2-236 isoform O15294-4): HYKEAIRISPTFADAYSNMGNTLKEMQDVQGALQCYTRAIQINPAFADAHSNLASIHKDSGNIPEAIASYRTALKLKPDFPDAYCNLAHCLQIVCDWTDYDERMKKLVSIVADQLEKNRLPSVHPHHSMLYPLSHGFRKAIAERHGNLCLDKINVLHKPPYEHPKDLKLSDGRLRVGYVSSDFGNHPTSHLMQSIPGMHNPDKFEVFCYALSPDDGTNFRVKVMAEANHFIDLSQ
Briefly: UDP-Glo bioluminescent enzyme assay, dose response with OGT peptide and UDP-GlcNAc. Type of experiment: biochemical.

On to `O=C(O)c1cc(O)c(O)c(O)c1` [Gallic acid], for which the pIC50 in experiment [1] was 6.22.
Take `N#Cc1c(SCc2ccc(C(=O)O)cc2)nc2c(c1-c1cccs1)CCCC2` [ST078925]: in experiment [2], the pIC50 is 4.26.
In the case of `O=C(O)C1CC(=O)N(CCC23CC4CC(CC(C4)C2)C3)C(=Nc2ccc(Cl)cc2)S1` (stereo not drawn) [ST045849], the pIC50 in experiment [2] is 4.24.
